Assay results reported in publication PMC9026348, “Investigation of Direct and Retro Chromone-2-Carboxamides Based Analogs of Pseudomonas aeruginosa Quorum Sensing Signal as New Anti-Biofilm Agents” (Pharmaceuticals, 2022).

Key:
[1] = system: P. aeruginosa PAO1 biofilms; assay: Anti-biofilm assay, CFU count of adherent cells; assay type: cell-based, Pseudomonas aeruginosa PAO1; settings: PAO1, 48 h, relative to untreated control, mean ± SD of 3 independent experiments; for inhibition at 50 µM: Pseudomonas aeruginosa
Method: The effect of all compounds was evaluated on PAO1 biofilms, grown in 24-well microplates. The antibiofilm assay used in this study is based on a low nutritive culture medium, a rather weak inoculum (10^2 CFU/mL), and a regular renewal of the culture medium (at 2, 4, 6, 20, and 24 h), in order to promote the growth of adhered cells as biofilm, instead of the growth and/or sedimentation of planktonic cells. Since the QS systems are involved in early steps of biofilm formation, compounds were added at t0. After incubation, viable cells were quantified by CFU plate counts.
The rather low concentration of 50 µM used was set up according to detected concentrations of QS molecules in CF patients’ lungs. […] For all compounds, MICs/MBCs were higher than 500 µM. To be considered active, a threshold of 50% inhibition, relative to the untreated control, was applied.
Pseudomonas aeruginosa PAO1 was obtained from the Institute Pasteur Collection (CIP 104116, Paris, France), frozen and kept at -80 °C in a 20% (v/v) glycerol stock solution. Before each experiment, two successive subcultures were prepared on trypticase soy agar and incubated for 24 h under aerobic conditions at 37 °C. Before each experiment, bacterial suspensions of 10^8 CFU/mL were prepared by adjusting OD at 640 nm to 0.150.
The bacterial enumerations were done on trypticase soy agar. The minimum biofilm broth used for biofilm formation (MBB) was prepared in sterile distilled water (SDW) and was composed of MgSO4·7H2O (0.02 g/L), FeSO4·7H2O (0.5 mg/L), Na2HPO4 (1.25 g/L), KH2PO4 (0.5 g/L), (NH4)2SO4 (0.1 g/L), and glucose (0.05 g/L) from Merck-Sigma (France).
The enumeration of adhered bacteria was carried-out according to Campanac et al. with some modifications. P. aeruginosa biofilms were grown in a 24-wells microtiter plate for 48 h. The culture medium was composed of BBM 2X (1.0 mL) and 1.0 mL of a 10^−4 M solution of tested compound dissolved in SDW (final concentration 50 µM). After inoculation with 100 µL of a 10^2 CFU/mL bacterial suspension of P. aeruginosa PAO1 (final inoculum 10 CFU/well), the microtiter plate was incubated à 37 °C. After 2 h, 4 h, 6 h, 20 h and 24 h of incubation, each well was emptied, rinsed twice with SDW, and the culture medium was renewed. After 48 h of culture, the biofilm was rinsed twice with 2.0 mL SDW. The bottom of each well was scraped with a sterile spatula and suspended in 1.0 mL of SDW. The content of each well was diluted by serial dilutions in test tubes. After inclusion of 0.9 mL of each dilution in trypticase soy agar, Petri dishes were incubated for 48 h at 37 °C. The number of colony forming units (CFUs) was counted and the inhibition percentage calculated using the following formula: Inhibition(%)=Adhered cellsControl(CFU/mL)−Adhered cellsSample(CFU/mL) /Adhered cellsControl×100

SMILES | melting point | inhibition at 50 µM [1] | Biofilm Inhibition (%) ([1]; 50 µM)
O=C(Nc1ccc(Cn2ccnc2)cc1)c1cc(=O)c2ccccc2o1 [3′d, N-(4-((1H-Imidazol-1-yl)methyl)phenyl)-4-oxo-4H-chromene-2-carboxamide] | 261 °C | < 10% | 
CC(C)(C)OC(=O)N1CCC(CNC(=O)c2cc(=O)c3ccccc3o2)CC1 [3′e, Tert-butyl 4-((4-oxo-4H-chromene-2-carboxamido)methyl)piperidine-1-carboxylate] | 129 °C | 36 ± 28.6% | 
O=C(NCCCn1ccnc1)c1cc(=O)c2ccccc2o1 [3′f, N-(3-(1H-Imidazol-1-yl)propyl)-4-oxo-4H-chromene-2-carboxamide] | 171 °C | < 10% | 
O=C(CN1CCN(C(=O)c2cc(=O)c3ccccc3o2)CC1)N1CCCC1 [3′i, 2-(4-(2-Oxo-2-(pyrrolidin-1-yl)ethyl)piperazine-1-carbonyl)-4H-chromen-4-one] | 117 °C | 10.8 ± 0.4% | 
CCN(CC)CCCC(C)NC(=O)c1cc(=O)c2ccccc2o1 (stereo not drawn) [3′g, N-(5-(Diethylamino)pentan-2-yl)-4-oxo-4H-chromene-2-carboxamide] | 110 °C | 14.7 ± 2.1% | 
O=C(Nc1cc(=O)c2ccccc2o1)c1cc([N+](=O)[O-])cc([N+](=O)[O-])c1 [6o, 3,5-Dinitro-N-(4-oxo-4H-chromen-2-yl) benzamide] | 291 °C | 78.3 ± 4% | 
COc1ccc(NC(=O)c2cc(=O)c3ccccc3o2)cc1 [3p, N-(4-Methoxyphenyl)-4-oxo-4H-chromene-2-carboxamide] |  | 47.5 ± 5.3% | 
CCN(CC)Cc1cc(NC(=O)c2cc(=O)c3ccccc3o2)ccc1O [3′b] |  |  | 35.5 ± 5.8%
Cc1ccc(NC(=O)c2cc(=O)c3ccccc3o2)cc1 [3b, 4-Oxo-N-(p-tolyl)-4H-chromene-2-carboxamide] |  | 39.1 ± 5.4% | 
O=C(Nc1ccc(Br)cc1)c1cc(=O)c2ccccc2o1 [3g, N-(4-Bromophenyl)-4-oxo-4H-chromene-2-carboxamide] |  | 47.2 ± 2.8% | 

Further lines, with some results ahead:

melting point | SMILES | inhibition at 50 µM [1] | Biofilm Inhibition (%) ([1]; 50 µM)
240 °C | Cc1ccc(C(=O)Nc2cc(=O)c3ccccc3o2)cc1 [6b, 4-Methyl-N-(4-oxo-4H-chromen-2-yl) benzamide] | 67 ± 3.6% | 
296 °C | O=C(Nc1cc(=O)c2ccccc2o1)c1ccc(Cl)cc1 [6f, 4-Chloro-N-(4-oxo-4H-chromen-2-yl) benzamide] | 66.6 ± 2.1% | 
229 °C | CCCc1ccc(C(=O)Nc2cc(=O)c3ccccc3o2)cc1 [6d, N-(4-Oxo-4H-chromen-2-yl)-4-propylbenzamide] | 69.9 ± 9.7% | 
179 °C | O=C(NC1CCCCC1)c1cc(=O)c2ccccc2o1 [3x, N-Cyclohexyl-4-oxo-4H-chromene-2-carboxamide] | 32 ± 10.3% | 
215 °C | O=C(Nc1cc(=O)c2ccccc2o1)c1ncccn1 [6v, N-(4-Oxo-4H-chromen-2-yl) pyrimidine-2-carboxamide] | 48.8 ± 2.6% | 
229 °C | COc1ccc(NC(=O)c2cc(=O)c3ccccc3o2)cc1OC [3s, N-(3,4-Dimethoxyphenyl)-4-oxo-4H-chromene-2-carboxamide] | < 10% | 
218 °C | O=C(Nc1cc(=O)c2ccccc2o1)c1ccccc1 [6a, N-(4-Oxo-4H-chromen-2-yl) benzamide] | 73.6 ± 6.1% | 
212 °C | CCCC(=O)Nc1cc(=O)c2ccccc2o1 [6w, N-(4-Oxo-4H-chromen-2-yl) butyramide] | 56.4 ± 7.2% | 
218 °C | CSc1ccccc1C(=O)Nc1cc(=O)c2ccccc2o1 [6r, 2-(Methylthio)-N-(4-oxo-4H-chromen-2-yl) benzamide] | 60.3 ± 15.8% | 
211 °C | COc1cc(NC(=O)c2cc(=O)c3ccccc3o2)cc(OC)c1 [3t, N-(3,5-Dimethoxyphenyl)-4-oxo-4H-chromene-2-carboxamide] | < 10% | 
